Measured values reported in publication PMC9604400, “Synthesis, Anticancer and Antitubercular Properties of New Chalcones and Their Nitrogen-Containing Five-Membered Heterocyclic Hybrids Bearing Sulfonamide Moiety” (International Journal of Molecular Sciences, 2022).
Values after ≈ are worked out from the molar mass of the structure shown. Marks after values point to notes of the source that are not given here.

Experiments:
Test in all cases: microbe, parasite or virus in culture
[1] = tested on: M. tuberculosis ATCC 35822; format: cell-based; settings: Mycobacterium tuberculosis, ATCC35822
[2] = tested on: M. tuberculosis ATCC 35838; format: cell-based, Mycobacterium tuberculosis
[3] = tested on: M. tuberculosis LAM9 SIT 42; format: cell-based, Mycobacterium tuberculosis
[4] = tested on: M. tuberculosis Orphan strain; format: cell-based; settings: Mycobacterium tuberculosis
M. tuberculosis Haarlem = format: cell-based; settings: Mycobacterium tuberculosis
M. tuberculosis Beijing = format: cell-based; settings: Mycobacterium tuberculosis
[5] = Mycobacterium tuberculosis, ATCC35838, f. M. tuberculosis ATCC 35838 (rifampicin-resistant)
[6] = Mycobacterium tuberculosis, LAM9SIT42, c. M. tuberculosis LAM9 SIT 42
[7] = f. M. tuberculosis ATCC 35838 (rifampicin-resistant)

Row | Compound | MIC [1] [µM] | MIC [2, 5] [µM] | MIC [3, 6] [µM] | MIC [4] [µM] | MIC (M. tuberculosis Haarlem) [µM] | MIC (M. tuberculosis Beijing) [µM] | MIC [2, 7] | MIC ([3]; c. M. tuberculosis LAM9 SIT 42)
1 | C[C@H]1COc2c(N3CCN(C)CC3)c(F)cc3c(=O)c(C(=O)O)cn1c23 [Levofloxacin, levofloxacin, reference compound] | 2.8 (≈ 1.01 µg/mL) | 2.8 (≈ 1.01 µg/mL) | 2.8 (≈ 1.01 µg/mL) | 2.8 (≈ 1.01 µg/mL) | 2.8 (≈ 1.01 µg/mL) | 2.8 (≈ 1.01 µg/mL) |  | 
2 | COc1cc(OC)c(S(N)(=O)=O)cc1C(=O)/C=C/c1ccc2c(c1)OCO2 [Compound 17f, (E)-5-(3-(Benzo[d][1,3]dioxol-5-yl)acryloyl)-2,4-dimethoxybenzenesulfonamide] | > 25 | > 25 | > 2 | > 2 | > 2 | > 2 |  | 
3 | COc1cc(OC)c(S(=O)(=O)NNC(=O)c2ccncc2)cc1C(=O)/C=C/c1cc(OC)c(OC)c(OC)c1 [Compound 20e, (E)-N’-Isonicotinoyl-2,4-dimethoxy-5-(3-(3,4,5-trimethoxyphenyl)acryloyl)benzenesulfonohydrazide] | > 18 | < 12 | 8.97 (≈ 5 µg/mL) | > 18 | > 18 | < 9 | <9.0 * µM | <9.0 * µM
4 | COc1cc(OC)c(S(N)(=O)=O)cc1C(=O)C=Cc1ccccc1 [Compound 17a, 5-Cinnamoyl-2,4-dimethoxybenzenesulfonamide] | > 29 | 29 (≈ 10.1 µg/mL) | > 29 | 29 (≈ 10.1 µg/mL) | > 29 | 29 (≈ 10.1 µg/mL) |  | 
5 | COc1cc(OC)c(S(=O)(=O)NNC(=O)c2ccncc2)cc1C(=O)/C=C/c1ccc2c(c1)OCO2 [Compound 20f, (E)-5-(3-(Benzo[d][1,3]dioxol-5-yl)acryloyl)-N’-isonicotinoyl-2,4-dimethoxybenzenesulfonohydrazide] | > 20 | < 12 | 9.77 (≈ 5 µg/mL) | > 20 | > 20 | 20 (≈ 10.2 µg/mL) | <10 * µM | <10 µM
6 | COc1ccc(/C=C/C(=O)c2cc(S(=O)(=O)NNC(=O)c3ccncc3)c(OC)cc2OC)cc1 [Compound 20d, (E)-N’-Isonicotinoyl-2,4-dimethoxy-5-(3-(4-methoxyphenyl)acryloyl)benzenesulfonohydrazide] | > 20 | 20 (≈ 9.95 µg/mL) | > 20 | > 20 | > 20 | > 20 |  | 
7 | COc1ccc(C(=O)C=Cc2ccccc2)cc1S(=O)(=O)NNC(=O)c1ccncc1 [Compound 19a, 5-Cinnamoyl-N’-isonicotinoyl-2-methoxybenzenesulfonohydrazide] | > 23 | < 12 | 23 (≈ 10.1 µg/mL) | > 23 | > 23 | 23 (≈ 10.1 µg/mL) | <11 µM | 
8 | COc1cc(OC)c(S(=O)(=O)NNC(=O)c2ccncc2)cc1C(=O)C=Cc1ccccc1 [Compound 20a, 5-Cinnamoyl-N’-isonicotinoyl-2,4-dimethoxybenzenesulfonohydrazide] | > 21 | < 12 | 21 (≈ 9.82 µg/mL) | > 21 | > 21 | < 11 | <11 * µM | 
9 | COc1ccc(/C=C/C(=O)c2ccc(OC)c(S(=O)(=O)NNC(=O)c3ccncc3)c2)cc1 [Compound 19d, (E)-N’-Isonicotinoyl-2-methoxy-5-(3-(4-methoxyphenyl)acryloyl)benzenesulfonohydrazide] | > 21 | 21 (≈ 9.82 µg/mL) | 21 (≈ 9.82 µg/mL) | 21 (≈ 9.82 µg/mL) | > 21 | 21 (≈ 9.82 µg/mL) |  | 
